According to PMC3822755 (Bioorganic & medicinal chemistry letters, 2013):

Assays:
[1] = system: VSV-GP (vesicular stomatitis virus particle bearing the EBOV GP); type: cell-based
[2] = system: VSV-G (VSV bearing its native envelope glycoprotein G); type: cell-based, vesicular stomatitis virus; Vero host cells

## CC(C)CCC[C@@H](C)[C@H]1CC[C@H]2[C@@H]3CC=C4C[C@@H](O)CC[C@]4(C)[C@H]3CC[C@]12C [cholesterol, reference compound]
[1]
  activity against VSV-GP entry (in words): relatively modest effects

## KKKKGSGC(Chol) ^b [Peptide 3-Chol]
[1]
  activity against VSV-GP entry (in words): active
  inhibition of VSV-GP entry: > 90%
[1]; 20 µM
  potency against VSV-GP compared with 1-Chol and 2-Chol: much less potent
[2]
  activity against VSV-G (in words): active
